The source made the active and inactive calls. No cut-off for these calls is given here.
Assays:
A549 [1] = experiment: Antiproliferative activity against human A549 cells assessed as reduction in cell viability; type: functional, cell-based
[2] = target: T1, Glutaminase kidney isoform, mitochondrial (Homo sapiens, UniProt O94925); experiment: Inhibition of GLS1 (unknown origin)
T1 sequence (O94925 whole entry): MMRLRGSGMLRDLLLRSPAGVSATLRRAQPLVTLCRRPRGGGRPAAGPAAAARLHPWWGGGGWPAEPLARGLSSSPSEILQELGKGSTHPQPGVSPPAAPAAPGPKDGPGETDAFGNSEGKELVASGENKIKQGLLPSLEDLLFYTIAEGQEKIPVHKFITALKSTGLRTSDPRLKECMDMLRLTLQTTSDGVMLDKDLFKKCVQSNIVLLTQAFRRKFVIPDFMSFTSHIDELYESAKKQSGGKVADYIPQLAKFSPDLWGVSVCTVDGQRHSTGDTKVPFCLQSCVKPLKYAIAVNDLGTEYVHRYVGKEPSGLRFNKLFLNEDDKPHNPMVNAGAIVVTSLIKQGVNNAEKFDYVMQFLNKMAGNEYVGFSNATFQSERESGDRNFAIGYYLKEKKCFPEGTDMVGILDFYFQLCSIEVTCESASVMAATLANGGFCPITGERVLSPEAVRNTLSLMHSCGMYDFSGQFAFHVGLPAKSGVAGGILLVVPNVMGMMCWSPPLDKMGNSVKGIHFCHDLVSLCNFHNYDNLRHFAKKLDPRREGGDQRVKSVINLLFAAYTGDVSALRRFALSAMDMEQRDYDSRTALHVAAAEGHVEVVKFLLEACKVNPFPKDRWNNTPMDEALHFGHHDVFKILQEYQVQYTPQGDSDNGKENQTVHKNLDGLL

[3] = target: T2, Glutaminase liver isoform, mitochondrial (Homo sapiens, UniProt Q9UI32); experiment: Inhibition of GLS2 (unknown origin)
T2 sequence (Q9UI32 whole entry): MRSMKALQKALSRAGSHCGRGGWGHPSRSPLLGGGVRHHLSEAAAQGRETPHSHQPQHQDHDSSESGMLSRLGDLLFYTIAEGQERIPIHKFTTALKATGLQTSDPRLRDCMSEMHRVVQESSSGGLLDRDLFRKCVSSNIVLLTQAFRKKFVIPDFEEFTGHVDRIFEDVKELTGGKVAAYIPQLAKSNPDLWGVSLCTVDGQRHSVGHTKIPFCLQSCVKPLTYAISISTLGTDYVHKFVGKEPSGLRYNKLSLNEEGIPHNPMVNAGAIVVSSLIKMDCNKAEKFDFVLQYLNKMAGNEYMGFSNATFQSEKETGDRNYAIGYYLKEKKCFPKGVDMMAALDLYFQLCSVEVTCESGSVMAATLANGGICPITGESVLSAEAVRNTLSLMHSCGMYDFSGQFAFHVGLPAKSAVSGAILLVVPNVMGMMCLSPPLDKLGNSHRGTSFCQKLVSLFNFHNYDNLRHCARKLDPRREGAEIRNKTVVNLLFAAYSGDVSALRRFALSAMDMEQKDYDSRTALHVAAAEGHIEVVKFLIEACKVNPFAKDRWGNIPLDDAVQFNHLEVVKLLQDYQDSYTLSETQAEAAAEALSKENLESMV

[4] = Terminal half life in rat at 3 mg/kg, po; type: ADME, organism-based; conditions: in vivo, read-out: beta t1/2 (converted)
[5] = Clearance in rat at 3 mg/kg, iv; type: ADME, organism-based; conditions: in vivo
[6] = Clearance in rat at 3 mg/kg, po; type: ADME, organism-based; conditions: in vivo
[7] = Cmax in rat at 3 mg/kg, iv; type: ADME, organism-based; set-up: dose 3 mg/kg, route iv; conditions: in vivo
A549 [8] = experiment: Antitumor activity against human A549 cells xenografted in mouse model assessed as tumor growth inhibition at 100 mg/kg once daily via oral gavage administered for 28 days relative to control; type: functional; set-up: scale not given: the % may be the effect or the level left; conditions: time 28 day
[9] = Oral bioavailability in rat at 3 mg/kg; type: ADME, organism-based; conditions: in vivo
HCT-116 [10] = experiment: Antitumor activity against human HCT-116 cells xenografted in mouse model assessed as tumor growth inhibition at 100 mg/kg once daily via oral gavage administered for 28 days relative to control; type: functional; set-up: scale not given: the % may be the effect or the level left; conditions: time 28 day
A549 [11] = experiment: Induction of cell cycle arrest in human A549 cells assessed as accumulation of cells at G0/G1 phase at 50 nM incubated for 48 hrs by propidium iodide staining based flow cytometry analysis (Rvb=61.61%); type: functional
A549 [12] = experiment: Induction of cell cycle arrest in human A549 cells assessed as accumulation of cells at G0/G1 phase at 400 nM incubated for 48 hrs by propidium iodide staining based flow cytometry analysis (Rvb=61.61%); type: functional
A549 [13] = experiment: Induction of cell cycle arrest in human A549 cells assessed as accumulation of cells at G0/G1 phase at 800 nM incubated for 48 hrs by propidium iodide staining based flow cytometry analysis (Rvb=61.61%); type: functional
A549 [14] = experiment: Induction of cell cycle arrest in human A549 cells assessed as accumulation of cells at G2/M phase at 400 nM incubated for 48 hrs by propidium iodide staining based flow cytometry analysis (Rvb=23.88%); type: functional
A549 [15] = experiment: Induction of cell cycle arrest in human A549 cells assessed as accumulation of cells at S phase at 50 nM incubated for 48 hrs by propidium iodide staining based flow cytometry analysis (Rvb=14.51%); type: functional
A549 [16] = experiment: Induction of cell cycle arrest in human A549 cells assessed as accumulation of cells at S phase at 100 nM incubated for 48 hrs by propidium iodide staining based flow cytometry analysis (Rvb=14.51%); type: functional
A549 [17] = experiment: Induction of cell cycle arrest in human A549 cells assessed as accumulation of cells at S phase at 800 nM incubated for 48 hrs by propidium iodide staining based flow cytometry analysis (Rvb=14.51%); type: functional
A549 [18] = experiment: Induction of intracellular ROS production in human A549 cells by DCFH-DA staining based fluorescence microscopic analysis; type: functional, cell-based; conditions: dose 1-10 µM
A549 [19] = experiment: Induction of apoptosis in human A549 cells assessed as early apoptotic cells at 5 uM incubated for 48 hrs by annexin V-FITC and propidium iodide based flow cytometry analysis (Rvb =12.289%); type: functional
A549 [20] = experiment: Induction of apoptosis in human A549 cells assessed as early apoptotic cells at 10 uM incubated for 48 hrs by annexin V-FITC and propidium iodide based flow cytometry analysis (Rvb =12.289%); type: functional
A549 [21] = experiment: Induction of apoptosis in human A549 cells assessed as late apoptotic cells at 1 uM incubated for 48 hrs by annexin V-FITC and propidium iodide based flow cytometry analysis (Rvb =9.696%); type: functional
A549 [22] = experiment: Induction of apoptosis in human A549 cells assessed as late apoptotic cells at 5 uM incubated for 48 hrs by annexin V-FITC and propidium iodide based flow cytometry analysis (Rvb =9.696%); type: functional
A549 [23] = experiment: Induction of apoptosis in human A549 cells assessed as late apoptotic cells at 10 uM incubated for 48 hrs by annexin V-FITC and propidium iodide based flow cytometry analysis (Rvb =9.696%); type: functional
HCT-116 [24] = experiment: Antitumor activity against human HCT-116 cells xenografted in mouse model assessed as reduction in tumor cells at 100 mg/kg administered via oral gavage for 28 days; type: functional, organism-based; conditions: time 28.0 day
[25] = human, microsomes
Description: Metabolic stability in human liver microsome assessed as intrinsic clearance

IC50 (A549 [1]): 570 nM
IC50 [2]: 68 nM
IC50 [3]: > 15000 nM
half-life [4]: 19.8 h
CL [5]: 102 mL/min/kg
CL [6]: 557 mL/min/kg
Cmax [7]: 699 ng/mL
F [9]: 12.4%
CLH [25]: 15.6 g/mL/min
SMILES: CCCCCCN1CCC(CNC(=O)c2cccc(COCCC3CCN(c4nnc(NC(=O)Cc5ccccc5)s4)CC3)c2)CC1
Activity (A549 [8]): 40.9%
Activity (HCT-116 [10]): 42%
Activity (A549 [11]): 62.73%
Activity (A549 [12]): 67.53%
Activity (A549 [13]): 68.55%
Activity (A549 [14]): 18.77%
Activity (A549 [15]): 13.17%
Activity (A549 [16]): 17.76%
Activity (A549 [17]): 11.77%
Activity (A549 [18]): Dose-Dependent Effect
Activity (A549 [19]): 20.673%
Activity (A549 [20]): 16.025%
Activity (A549 [21]): 7.018%
Activity (A549 [22]): 16.368%
Activity (A549 [23]): 68.08%
Activity (HCT-116 [24]): Active

— ChEMBL document CHEMBL5352409, “Design, synthesis, and pharmacological evaluation of 2-(1-(1,3,4-thiadiazol-2-yl)piperidin-4-yl)ethan-1-ol analogs as novel glutaminase 1 inhibitors” (Eur J Med Chem, 2022)
